Columns and labels:
collagenase (type IV) = target: T1, collagenase (type IV); test: fluorogenic EnzChek gelatinase/collagenase kit; format: biochemical; details: per kit instructions; positive control
T1 construct: gene colG; known from the kit
Excerpt: fluorogenic EnzChek gelatinase/collagenase kit on collagenase (type IV)

hyaluronidase = target: T2, hyaluronidase; test: hyaluronic acid turbidity, absorbance […] nm; format: biochemical; details: 37 °C; hyaluronic acid substrate pH 5.35; reference compound; printed interval does not contain the value
T2 construct: gene SPAM1

O=C(O[C@@H]1Cc2c(O)cc(O)cc2O[C@@H]1c1cc(O)c(O)c(O)c1)c1cc(O)c(O)c(O)c1 [EGCG, epigallocatechin gallate]
Collagenase (collagenase (type IV)): 4.8 (4.1–5.5) µg/mL | Hyaluronidase (hyaluronidase): 119.1 (126.1–320.4) µg/mL

Reference: article PMC7997182, “Unravelling the Dermatological Potential of the Brown Seaweed Carpomitra costata” (Marine Drugs, 2021)
